What all share (type): cell-based
In assay [1] the target is T1, BaF3-D835N (Homo sapiens, UniProt P36888, D835N, cells depend on it).
T1 sequence (P36888 1-993 D835N): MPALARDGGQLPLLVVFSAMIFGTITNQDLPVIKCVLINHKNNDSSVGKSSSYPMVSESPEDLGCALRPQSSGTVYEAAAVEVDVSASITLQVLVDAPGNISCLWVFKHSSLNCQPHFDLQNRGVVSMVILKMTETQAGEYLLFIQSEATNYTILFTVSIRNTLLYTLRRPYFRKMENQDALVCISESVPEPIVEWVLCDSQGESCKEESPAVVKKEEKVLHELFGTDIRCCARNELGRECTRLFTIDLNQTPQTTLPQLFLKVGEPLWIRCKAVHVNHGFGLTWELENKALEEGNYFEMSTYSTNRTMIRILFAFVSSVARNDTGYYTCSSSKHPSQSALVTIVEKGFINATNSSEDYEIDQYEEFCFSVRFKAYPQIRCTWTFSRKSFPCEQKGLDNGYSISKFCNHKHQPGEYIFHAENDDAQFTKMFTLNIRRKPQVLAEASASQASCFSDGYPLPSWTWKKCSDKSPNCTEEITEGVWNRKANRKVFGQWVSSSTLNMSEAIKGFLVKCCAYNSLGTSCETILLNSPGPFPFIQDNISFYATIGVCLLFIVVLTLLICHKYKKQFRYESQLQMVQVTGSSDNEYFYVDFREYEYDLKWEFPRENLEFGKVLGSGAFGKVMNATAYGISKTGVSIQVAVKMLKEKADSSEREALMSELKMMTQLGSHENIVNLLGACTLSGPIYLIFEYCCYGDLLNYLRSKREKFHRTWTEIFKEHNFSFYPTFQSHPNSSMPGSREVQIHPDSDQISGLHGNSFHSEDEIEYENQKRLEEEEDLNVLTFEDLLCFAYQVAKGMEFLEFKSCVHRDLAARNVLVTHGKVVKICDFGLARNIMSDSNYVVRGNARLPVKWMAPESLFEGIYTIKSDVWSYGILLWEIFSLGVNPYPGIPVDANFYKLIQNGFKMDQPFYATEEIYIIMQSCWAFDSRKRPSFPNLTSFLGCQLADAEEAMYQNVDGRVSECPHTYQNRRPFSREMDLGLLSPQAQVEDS
The assay is described as follows: MTS cellular proliferation assay. The note with it: 72 hour incubation, read-out: Growth inhibitory activity (in vivo EC50 nM). The text has this:
The viability of Flt3 expressing cells can be evaluated using a tetrazolium salt reduction cell-based assay. […] BaF3, both wild type and mutant, as well as transfected strains, MV4-11 and MOLM14 are well-characterized Flt3-dependent humanized or human cell lines which express active Flt3 receptors (see, Yee et al. Blood (2002)100 (8):2941-2949; Levis et al. (2002) 99(11): 3885-3891). These cell lines were used to determine the ability of the compounds provided herein to inhibit Flt3 in intact cells. In each case, and by methods known to those practiced in the art of cell culture, proliferation was measured after 72 hour incubation with the compounds provided herein using a standard MTS protocol (Promega Cat #5430 “Cell Titer 96 Aqueous Non-radioactive Cell Proliferation Assay”).
In general, cells were plated at 10,000-20,000 cells per well in DMEM medium with 0.5% serum. The compound plate was set up by aliquoting into column 1 of a 96 well 300 ul polypropylene plate, the negative control (DMSO), aliquoting into column 12 the positive control and titrating the test compound in serial dilutions into columns 2-1 l. An aliquot from each well of the compound plate was transferred to the plated cells and then incubated @ […] in 5% CO2. [00538] MTS tetrazolium compound (Owen's reagent) was thawed in a H2O bath. 20 μl of MTS tetrazolium was added to each well of optical plate and the cells were incubated @ 37° C. in 5% CO2 for 2 hours. The absorbance measured at 490 nm using a microplate reader.

The subject of assay [2] is U266B1 (multiple myeloma) cell line. The assay is described as follows: sulforhodamine B (SRB) cytotoxicity assay. The note with it: 72 h, 100 μM highest concentration, diluted 1:5, 3 day incubation, read-out: IC50 Measured Against U266B1 Cell Line. How it is done: (§1) The cytotoxic activity of compounds listed in Table 5 was determined with a sulforhodamine B (SRB) assay on panel of cell lines, including MdaMb231 (breast cancer), MV4-11 (leukemia), PC-3 (prostate cancer), U266B1 (multiple myeloma), C7 macrophages, and Raw264.7 (murine macrophage-like cells).
(§2) Cells growing in relevant media were seeded in a 96 well plate and left to adhere overnight. Cells were plated at appropriate cell densities: • MV4-11: 20.000 cells/well • Mda-Mb231: 6000 cells/well • C7: 10.000 cells/well • Raw264.7: 2000 cells/well • PC-3: 6000 cells/well • U266B1: 40.000 cells/well.
(§3) Cells were incubated before the compounds were added the next day to a top concentration of 100 μM and serially diluted 1 in 5 across the plate. After a 3 day incubation period (6 days for C7 and Raw264.7) cells were fixed with trichloroacetic acid (TCA) to end concentration of 10% for adherent cells and 16% end concentration for suspension cells for 1 hr at 4° C. before washing. Cells were stained with 0.4% sulforhodamine-B dye (SRB) in 1% acetic acid for 30 minutes and washed in 1% acetic acid. To solubilize the dye 100 μl 10 mM Tris, pH 10.5 was added and the absorbance was read at 564 nm. IC50 values were generated using the SoftMAX Pro™ software. The data is presented below in Tables 6 through 11.
(In SRB staining, fixed cells bind dye roughly in proportion to their protein.)

For assay [3], the system named is PC-3 (prostate cancer) cell line. The assay is described as follows: sulforhodamine B (SRB) cytotoxicity assay. The note with it: Homo sapiens, PC-3, 72 h; 100 μM highest concentration, diluted 1:5; 3 day incubation; read-out: IC50 Measured Against PC-3 Cell Line. How it is done: as §1, §2, §3
Assay [4] relates to Raw264.7 (murine macrophage-like cells). The assay is described as follows: sulforhodamine B (SRB) cytotoxicity assay. Particulars: Mus musculus, RAW264.7, 144 h; 25 μM highest concentration, diluted 1:5; 6 days; read-out: IC50 Measured Against Raw264.7 Cell Line.
Assay [5] concerns C7 macrophages. As to the kind of experiment: sulforhodamine B (SRB) cytotoxicity assay. Particulars: Macrophage, 144 h; 5 μM highest concentration, diluted 1:4; 6 day assay; read-out: IC50 Measured Against C7 Cell Line (6 day assay). How it is done: as §1, §2, §3

By EC50 is commonly meant the midpoint of the concentration-response curve. What is called IC50 is the concentration at which inhibition is half-maximal.

Molecules are shown by their SMILES.

As to `CN(C)CCCCCNc1ccc2ncn3c4ccc5[nH]ncc5c4c(=O)c1c23` [(III)], the EC50 in assay [1] was determined as 316 nM.
As to `O=c1c2c(NCCCN3CCOCC3)ccc3ncn(c4ccc5[nH]ncc5c14)c32` [(X)], the half-maximal inhibitory concentration (IC50) in assay [2] was 7060 nM; in assay [3], 17300 nM; in assay [4], 2.7 nM.
`CN(C)CCNc1ccc2ncn3c4ccc5[nH]ncc5c4c(=O)c1c23` [(XII)]: the IC50 in assay [2] turned out to be 6110 nM.
On to `CC(CCN1CCOCC1)Nc1ccc2ncn3c4ccc5[nH]ncc5c4c(=O)c1c23` (stereo not drawn) [(XVI)], for which the IC50 amounted to 14500 nM in assay [2], 8920 nM in assay [3] and 25.7 nM in assay [4].
Take `CN1CCN(CCCNc2ccc3ncn4c5ccc6[nH]ncc6c5c(=O)c2c34)CC1` [(XVII)]: the IC50 was found to be 360 nM in assay [5], 9650 nM in assay [3] and 2.6 nM in assay [4].
Consider `CN(C)CCCNc1ccc2ncn3c4ccc5[nH]ncc5c4c(=O)c1c23` [Compound (IV)], for which the EC50 in assay [1] amounted to 12 nM. Also, the IC50 in assay [2] was found to be 6940 nM; in assay [3], 2970 nM.
In the case of `CCN(CC)CCCNc1ccc2ncn3c4ccc5[nH]ncc5c4c(=O)c1c23` [Compound (XV)], the IC50 in assay [5] turned out to be 13 nM; in assay [3], 32800 nM.
For the compound `CCN(CC)CCNc1ccc2ncn3c4ccc(O)cc4c(=O)c1c23` [Symadex, 5-(2-(diethylamino)ethylamino)-8-hydroxy-6H-imidazo[4,5,1-de]acridin-6-one, reference compound], the EC50 in assay [1] worked out at 14.3 nM. In assay [5], the IC50 was determined as 15 nM.

The values above are taken from patent publication US20100292231A1, “Indazole Compounds for Treating Inflammatory Disorders, Demyelinating Disorders and Cancers” (priority 2007, published 2010).
